The assay concerns HIV-IIIb. Put plainly: Test A: Antiviral Assay in MT4 Cells. The settings on record: Human immunodeficiency virus 1, IIIB, MT4, 120 h, Table 2; MT-4 cells infected with HIV-IIIb, 5 days of incubation, CellTiter-Glo; read-out: EC50. It counts as cell-based. An outline of the steps: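 Read-out: CellTiter-Glo chemiluminescence after 5-day incubation at 37 °C. Compounds tested as 3-fold serial dilutions (10 concentrations, quadruplicate) in RPMI 1640 with 10% FBS, on MT-4 cells pre-infected at 37 °C with HIV-IIIb at 0.004 m.o.i.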
Regarding `Cc1cc2cc(-c3nc4cc(C)c([C@H](OC(C)(C)C)C(=O)O)c(-c5ccc(Cl)cc5)c4s3)cnc2[nH]1` [Compound 379], the EC50 is 15 nM. With `Cc1cc2cc(-c3cc(-c4nc5cc(C)c([C@H](OC(C)(C)C)C(=O)O)c(-c6ccc(Cl)cc6)c5s4)ccn3)cnc2[nH]1` [Compound 380], the EC50 came to 25 nM. Consider `Cc1cc2nc(-c3cn(C)c4ncc(F)cc34)sc2c(-c2ccc(Cl)cc2)c1[C@H](OC(C)(C)C)C(=O)O` [Compound 381], for which the EC50 amounted to 47 nM. `Cc1cc2nc(-c3ccnc(-c4cn(C)c5ncc(F)cc45)c3)sc2c(-c2ccc(Cl)cc2)c1[C@H](OC(C)(C)C)C(=O)O` [Compound 382]: the EC50 was determined as 91 nM. For `Cc1cc2nc(-c3ccnc(-c4ccc5c(c4)c(N)nn5C)c3)sc2c(-c2ccc(Cl)cc2)c1[C@H](OC(C)(C)C)C(=O)O` [Compound 383], the EC50 is 18 nM. Consider `Cc1cc2nc(C3CC=Cc4nn(C)cc43)sc2c(-c2ccc(Cl)cc2)c1[C@H](OC(C)(C)C)C(=O)O` (stereo partly shown) [Compound 384], for which the EC50 is 332 nM.

As to `Cc1cnc2n(C)cc(-c3cc(-c4nc5cc(C)c([C@H](OC(C)(C)C)C(=O)O)c(-c6ccc(Cl)cc6)c5s4)ccn3)cc1-2` [Compound 385], the EC50 worked out at 143 nM.

For the compound `Cc1cc2nc(-c3ccnc(-c4cnc5c(c4)c(C)cn5C)c3)sc2c(-c2ccc(Cl)cc2)c1[C@H](OC(C)(C)C)C(=O)O` [Compound 386], the EC50 amounted to 56 nM. Under `Cc1cc2nc(-c3cccc4c3cnn4C)sc2c(-c2ccc(Cl)cc2)c1[C@H](OC(C)(C)C)C(=O)O` [Compound 387] stands 530 nM; under `Cc1cc2nc(-c3cccc4c3OCC(=O)N4)sc2c(-c2ccc(Cl)cc2)c1[C@H](OC(C)(C)C)C(=O)O` [Compound 388], 28 nM; under `Cc1cc2nc(-c3ccnc(-c4ccc5c(c4)OCC(=O)N5C)c3)sc2c(-c2ccc(Cl)cc2)c1[C@H](OC(C)(C)C)C(=O)O` [Compound 389], 7 nM. As for `Cc1cc2nc(-c3ccnc(-c4cccc5c4OCC(=O)N5C)c3)sc2c(-c2ccc(Cl)cc2)c1[C@H](OC(C)(C)C)C(=O)O` [Compound 390], the EC50 came to 9 nM. As for `Cc1cc2nc(-c3ccnc(-c4ccc5c(c4)OCC(=O)N5)c3)sc2c(-c2ccc(Cl)cc2)c1[C@H](OC(C)(C)C)C(=O)O` [Compound 391], the EC50 worked out at 11 nM. Regarding `Cc1cc2nc(-c3ccnc(-c4cccc5c4OCC(=O)N5)c3)sc2c(-c2ccc(Cl)cc2)c1[C@H](OC(C)(C)C)C(=O)O` [Compound 392], the EC50 is 27 nM. In the case of `Cc1cc2nc(-c3ccnc(-c4ccc5c(c4)N(C)C(=O)CO5)c3)sc2c(-c2ccc(Cl)cc2)c1[C@H](OC(C)(C)C)C(=O)O` [Compound 393], the EC50 was 33 nM. For the compound `Cc1cc2nc(-c3ccnc(-c4ccc5c(c4)NC(=O)CO5)c3)sc2c(-c2ccc(Cl)cc2)c1[C@H](OC(C)(C)C)C(=O)O` [Compound 394], the EC50 turned out to be 25 nM.

On to `Cc1cc2nc(-c3cccc(-c4ccc5c(n4)N(C)CCO5)c3)sc2c(-c2ccc(Cl)cc2)c1[C@H](OC(C)(C)C)C(=O)O` [Compound 395], for which the EC50 is 61 nM. With `Cc1cc2nc(-c3ccnc(-c4cnc5c(c4)OCCN5C)c3)sc2c(-c2ccc(Cl)cc2)c1[C@H](OC(C)(C)C)C(=O)O` [Compound 396] the figure was 10 nM; with `Cc1cc2nc(-c3ccnc(-c4ccc5c(c4)CCN5C)c3)sc2c(-c2ccc(Cl)cc2)c1[C@H](OC(C)(C)C)C(=O)O` [Compound 397], 32 nM; with `Cc1cc2nc(-c3ccnc(-c4cccc5c4CCN5C)c3)sc2c(-c2ccc(Cl)cc2)c1[C@H](OC(C)(C)C)C(=O)O` [Compound 398], 36 nM. In the case of `Cc1cc2nc(-c3ccnc(-c4ccc5c(c4)N(C)CC5)c3)sc2c(-c2ccc(Cl)cc2)c1[C@H](OC(C)(C)C)C(=O)O` [Compound 399], the EC50 turned out to be 43 nM. For the compound `Cc1cc2nc(-c3ccnc(-c4ccc5c(c4)OCCN5C)c3)sc2c(-c2ccc(Cl)cc2)c1[C@H](OC(C)(C)C)C(=O)O` [Compound 400], the EC50 is 16 nM. As to `Cc1cc2nc(-c3ccnc(-c4ccc5c(c4)C(=O)N(C)CCO5)c3)sc2c(-c2ccc(Cl)cc2)c1[C@H](OC(C)(C)C)C(=O)O` [Compound 401], the EC50 amounted to 23 nM.

`COc1ncc(-c2cc(-c3nc4cc(C)c([C@H](OC(C)(C)C)C(=O)O)c(-c5ccc(Cl)cc5)c4s3)ccn2)cn1` [Compound 402]: the EC50 was determined as 35 nM. On to `CCOc1ncc(-c2cc(-c3nc4cc(C)c([C@H](OC(C)(C)C)C(=O)O)c(-c5ccc(Cl)cc5)c4s3)ccn2)cn1` [Compound 403], for which the EC50 amounted to 42 nM. On to `Cc1cc2nc(-c3ccnc(-c4ccc5c(c4)N(C)CCO5)c3)sc2c(-c2ccc(Cl)cc2)c1[C@H](OC(C)(C)C)C(=O)O` [Compound 404], for which the EC50 came to 41 nM.

Regarding `Cc1cc2nc(-c3ccnc(-c4cnc5c(c4)ncn5C)c3)sc2c(-c2ccc(Cl)cc2)c1[C@H](OC(C)(C)C)C(=O)O` [Compound 405], the EC50 came to 37 nM.

On to `Cc1cc2nc(-c3ccnc(-c4cnc5ncn(C)c5c4)c3)sc2c(-c2ccc(Cl)cc2)c1[C@H](OC(C)(C)C)C(=O)O` [Compound 406], for which the EC50 turned out to be 149 nM.

Regarding `Cc1cc2nc(-c3ccnc(-c4ccc5c(c4)nnn5C)c3)sc2c(-c2ccc(Cl)cc2)c1[C@H](OC(C)(C)C)C(=O)O` [Compound 407], the EC50 was determined as 14 nM. Under `Cc1cc2nc(-c3ccnc(-c4cnn(C(C)(C)C)c4)c3)sc2c(-c2ccc(Cl)cc2)c1[C@H](OC(C)(C)C)C(=O)O` [Compound 408] stands 27 nM; under `Cc1cc2nc(-c3ccc4c(c3)nc(C)n4C3CC3)sc2c(-c2ccc(Cl)cc2)c1[C@H](OC(C)(C)C)C(=O)O` [Compound 409], 10 nM. With `Cc1cc2nc(-c3ccc4c(c3)nc(C)n4C(C)C)sc2c(-c2ccc(Cl)cc2)c1[C@H](OC(C)(C)C)C(=O)O` [Compound 410] the figure was 9 nM; with `Cc1cc2nc(-c3ccc4c(c3)nc(C(C)C)n4C)sc2c(-c2ccc(Cl)cc2)c1[C@H](OC(C)(C)C)C(=O)O` [Compound 411], 8 nM. As to `Cc1cc2nc(-c3ccc4nc(C)n(C5CCOCC5)c4c3)sc2c(-c2ccc(Cl)cc2)c1[C@H](OC(C)(C)C)C(=O)O` [Compound 412], the EC50 worked out at 16 nM. `Cc1cc2nc(-c3ccc4nc(C)n(C5CCN(C)CC5)c4c3)sc2c(-c2ccc(Cl)cc2)c1[C@H](OC(C)(C)C)C(=O)O` [Compound 413]: the EC50 came out at 33 nM.

As to `Cc1cc2nc(-c3ccc4ncn(C5CCN(C)CC5)c4c3)sc2c(-c2ccc(Cl)cc2)c1[C@H](OC(C)(C)C)C(=O)O` [Compound 414], the EC50 came out at 32 nM.

Take `Cc1cc2nc(-c3ccc4c(c3)ncn4C)sc2c(-c2ccc(Cl)cc2)c1[C@H](OC(C)(C)C)C(=O)O` [Compound 415]: the EC50 stood at 10 nM. For the compound `Cc1cc2nn(C)cc2cc1-c1cc(-c2nc3cc(C)c([C@H](OC(C)(C)C)C(=O)O)c(-c4ccc(Cl)cc4)c3s2)ccn1` [Compound 416], the concentration giving a half-maximal response (EC50) was determined as 25 nM. Under `Cc1cc2nc(-c3ccnc(-c4ccc5c(cnn5C)c4C)c3)sc2c(-c2ccc(Cl)cc2)c1[C@H](OC(C)(C)C)C(=O)O` [Compound 417] stands 18 nM. With `Cc1cc2nc(-c3ccnc(-c4ccc5nn(C)cc5c4C)c3)sc2c(-c2ccc(Cl)cc2)c1[C@H](OC(C)(C)C)C(=O)O` [Compound 418], the EC50 amounted to 11 nM.

Regarding `Cc1cc2c(cnn2C)cc1-c1cc(-c2nc3cc(C)c([C@H](OC(C)(C)C)C(=O)O)c(-c4ccc(Cl)cc4)c3s2)ccn1` [Compound 419], the EC50 was determined as 13 nM. On to `Cc1cc2[nH]ncc2cc1-c1cc(-c2nc3cc(C)c([C@H](OC(C)(C)C)C(=O)O)c(-c4ccc(Cl)cc4)c3s2)ccn1` [Compound 420], for which the EC50 was 14 nM. Regarding `Cc1cc2nc(-c3ccnc(-c4ccc5[nH]ncc5c4C)c3)sc2c(-c2ccc(Cl)cc2)c1[C@H](OC(C)(C)C)C(=O)O` [Compound 421], the EC50 is 20 nM. `Cc1cc2nc(-c3ccnc(-c4cc(C)c5[nH]ncc5c4)c3)sc2c(-c2ccc(Cl)cc2)c1[C@H](OC(C)(C)C)C(=O)O` [Compound 422]: the EC50 worked out at 32 nM. In the case of `Cc1cc2nc(-c3ccc4cnccc4c3)sc2c(-c2ccc(Cl)cc2)c1[C@H](OC(C)(C)C)C(=O)O` [Compound 427], the EC50 came to 14 nM. With `Cc1cc2nc(-c3ccc4c(c3)c(-c3cnccn3)nn4C)sc2c(-c2ccc(Cl)cc2)c1[C@H](OC(C)(C)C)C(=O)O` [Compound 428], the EC50 came to 7 nM.

Consider `Cc1cc2nc(-c3ccc4scnc4c3)sc2c(-c2ccc(Cl)cc2)c1[C@H](OC(C)(C)C)C(=O)O` [Compound 429], for which the EC50 stood at 43 nM.

As for `Cc1cc2nc(-c3ccc4cnn(C)c4c3)sc2c(-c2ccc(Cl)cc2)c1[C@H](OC(C)(C)C)C(=O)O` [Compound 430], the EC50 came to 29 nM. Take `Cc1cc2nc(N3Cc4cccnc4C3)sc2c(-c2ccc(Cl)cc2)c1[C@H](OC(C)(C)C)C(=O)O` [Compound 431]: the EC50 amounted to 18 nM. Turning to `Cc1cc2nc(N3Cc4ccncc4C3)sc2c(-c2ccc(Cl)cc2)c1[C@H](OC(C)(C)C)C(=O)O` [Compound 432], the EC50 stood at 18 nM.

As to `Cc1cc2nc(N3CCc4cccnc4C3)sc2c(-c2ccc(Cl)cc2)c1[C@H](OC(C)(C)C)C(=O)O` [Compound 433], the EC50 is 38 nM. Take `Cc1cc2nc(N3CCc4ccncc4C3)sc2c(-c2ccc(Cl)cc2)c1[C@H](OC(C)(C)C)C(=O)O` [Compound 434]: the EC50 came to 42 nM.

Take `Cc1cc2nc(N3CCc4cnccc4C3)sc2c(-c2ccc(Cl)cc2)c1[C@H](OC(C)(C)C)C(=O)O` [Compound 435]: the EC50 was 39 nM.

For the compound `Cc1cc2nc(N3Cc4ccccc4C(F)(F)C3)sc2c(-c2ccc(Cl)cc2)c1[C@H](OC(C)(C)C)C(=O)O` [Compound 436], the EC50 amounted to 67 nM. `Cc1cc2nc(N3CC[C@@H]4CCCC[C@@H]4C3)sc2c(-c2ccc(Cl)cc2)c1[C@H](OC(C)(C)C)C(=O)O` [Compound 437]: the EC50 came to 309 nM.

For the origin of these results see patent US8987250B2 (Gilead Sciences, Inc., priority 2012, dated 2015).
